Data as given in ChEMBL document CHEMBL1130828, “Synthesis and biological activities of phenyl piperazine-based peptidomimetic growth hormone secretagogues” (Bioorg Med Chem Lett, 1998).

Organism: Rattus norvegicus
Assay: Concentration required for GH-releasing activity in the rat pituitary cell assay was determined in vitro
Assay type: functional
Settings: Pituitary gland cell

EC50 [nM] | SMILES
4.5 | COC(=O)CS(=O)(=O)Nc1ccccc1N1CCN(C(=O)[C@@H](CCCc2ccccc2)NC(=O)C(C)(C)N)CC1
760 | CC(C)(N)C(=O)N[C@H](Cc1c[nH]c2ccccc12)C(=O)N1CCN(c2ccccc2Cl)CC1
490 | COc1ccccc1N1CCN(C(=O)[C@@H](Cc2c[nH]c3ccccc23)NC(=O)C(C)(C)N)CC1
150 | Cc1ccccc1N1CCN(C(=O)[C@@H](Cc2c[nH]c3ccccc23)NC(=O)C(C)(C)N)CC1
210 | CC(C)c1ccccc1N1CCN(C(=O)[C@@H](Cc2c[nH]c3ccccc23)NC(=O)C(C)(C)N)CC1
200 | CC(C)(N)C(=O)N[C@H](CCCc1ccccc1)C(=O)N1CCN(c2ccccc2NS(=O)(=O)C(F)(F)F)CC1
2.3 | CC(C)(N)C(=O)N[C@H](CCCc1ccccc1)C(=O)N1CCN(c2ccccc2NS(=O)(=O)CC(=O)O)CC1
6.3 | CC(C)(N)C(=O)N[C@H](CCCc1ccccc1)C(=O)N1CCN(c2ccccc2NS(C)(=O)=O)CC1
2.8 | CC(C)S(=O)(=O)Nc1ccccc1N1CCN(C(=O)[C@@H](CCCc2ccccc2)NC(=O)C(C)(C)N)CC1
100 | Cc1ccccc1N1CCN(C(=O)[C@@H](CCCc2ccccc2)NC(=O)C(C)(C)N)CC1
